Experimental data published in patent US9341618B2, “Method for evaluating or screening hair growth-regulating agent” (Kao Corporation, priority 2007, dated 2016).
Like-named read-outs stand apart in the source and are kept apart here.

B1: TGF-β2: TGF-β2 (R & D Systems, Inc., item No. 102-B2-001/CF), confirmed to suppress hair growth in human hair follicle organ culture (protein, UniProt P61812 303-414, looked up)
Transforming growth factor …: ALDAAYCFRNVQDNCCLRPLYIDFKRDLGWKWIHEPKGYNANFCAGACPYLWSSDTQHSRVLSLYNTINPEASASPCCVSQDLEPLTILYYIGKTPKIEQLSNMIVKSCKCS

Legend:
hair follicles of a pig = settings: DHT 10 ng/mL; for Hair elongation quantity (control regarded as 100%): 6th day of organ culture, William's E medium
Method: As a pig skin, a skin obtained from a crossbred pig with white hair which has been bred as a pork pig in Japan was used. The pig skin was cut into an appropriate size, the extra fat was cut away, and the resulting skin was soaked in a Hibiten solution (5% Hibiten solution (Sumitomo Pharmaceuticals) was diluted to 5 to 20 times with water) for 5 to 10 minutes under sterile conditions for sterilization and then washed several times with D-PBS.
Then hair follicles were isolated from the treated pig skin using forceps and scalpel (FEATHER No. 10) under a stereo microscope and collected in a medium.
According to the procedures (1), hair follicles of a pig were obtained from the dorsal region, lateral region, abdominal region, inguinal region, buttocks and shoulder of the pig. The isolated hair follicles were placed in a 24-well culture plate to give one hair follicle per well.
Incubation was carried out at 37° C. for 6 days in an incubator containing 5% of CO2.
The medium was exchanged every two days or every three days, and a hair elongation quantity after 6 days incubation was measured and compared with that of control.
For the control, William's E medium not containing DHT was used, and a hair elongation quantity after the organ culture was regarded as 100%.
Incidentally, a hair elongation quantity was measured, regarding the date on which incubation was commenced as the 0th day, by taking stereo microscopic images with a CCD camera (pixera model No. PVC 100C) at the 0th day and the 6th day, and measuring the change of the length from the base of hairbulb to the tip of hair shaft based on the images.

[1] = test system: hair follicles of a human; settings: literature; cited from earlier work
[2] = test system: hair follicles at the buttocks of a pig; experiment: Organ culture of pig buttocks hair follicles in RPMI1640 medium (hair elongation); assay type: cell-based; settings: TGF-β2 10 ng/mL, 8th day of organ culture in RPMI1640 medium
Method: The hair follicles were incubated at 37° C. for 8 days in an incubator containing 5% of CO2.

[3] = abdominal region hair follicles

Row | Molecule | Growth of hair follicles, effect in words (hair follicles of a pig; [3]) | Hair elongation quantity (control regarded as 100%) (hair follicles of a pig; [3]) [%] | Hair elongation quantity (control regarded as 100%) (hair follicles of a pig; buttocks hair follicles) [%] | Growth of hair follicles, effect in words (hair follicles of a pig; dorsal region hair follicles) | Hair elongation quantity (control regarded as 100%) (hair follicles of a pig; dorsal region hair follicles) [%] | Hair elongation quantity (control regarded as 100%) (hair follicles of a pig; inguinal region hair follicles) [%] | Hair elongation quantity (control regarded as 100%) (hair follicles of a pig; lateral region hair follicles) [%] | Hair elongation quantity (control regarded as 100%) (hair follicles of a pig; shoulder hair follicles) [%] | Effect on hair growth in organ culture [1] | Hair elongation rate (%) when that of control is regarded as 100% [2] [%]
1 | C[C@]12CCC(=O)C[C@@H]1CC[C@@H]1[C@@H]2CC[C@]2(C)[C@@H](O)CC[C@@H]12 [DHT, 5α-dihydrotestosterone] | suppressed | 75 | 102 | promoted | 179 | 102 | 108 | 99 |  | 
2 | B1 |  |  |  |  |  |  |  |  | confirmed to suppress hair growth | 59
